Laboratory results as given in US7294687B2, “Parenteral formulations of a peptide for the treatment of systemic lupus erythematosus” (TEVA Pharmaceutical Industries, Ltd., priority 2003, dated 2007).

Tested on: SLE-prone (NZBxNZW)F1 female mouse
Assay: Anti-dsDNA antibodies in SLE-prone mice
Format: in vivo, (NZBxNZW)F1 mice
Details: 25 or 50 μg/mouse in Captisol®; after 10 treatment injections; vs Captisol® alone
Protocol: The same batch of drug substance was used in this study and in the first Phase I clinical trial with Compound 1. The mice were followed for anti-dsDNA antibodies and for proteinuria. When the mice were sacrificed, the intensity of ICD was determined in kidneys.

In the case of H-GYYWSWIRQPPGKGEEWIG-OH [Compound 1], the “levels of dsDNA-specific antibodies” value is reported as “no significant differences between groups”.
